Data reported in patent US11214538B2, “Farnesoid X receptor agonists and uses thereof” (Metacrine, Inc., priority 2015, dated 2022).

Biological target: T1, hFXR (Homo sapiens, UniProt Q96RI1)
T1 construct: expressed in transfected cells; host or cells: CV-1 cells
T1 sequence (Q96RI1 1-486): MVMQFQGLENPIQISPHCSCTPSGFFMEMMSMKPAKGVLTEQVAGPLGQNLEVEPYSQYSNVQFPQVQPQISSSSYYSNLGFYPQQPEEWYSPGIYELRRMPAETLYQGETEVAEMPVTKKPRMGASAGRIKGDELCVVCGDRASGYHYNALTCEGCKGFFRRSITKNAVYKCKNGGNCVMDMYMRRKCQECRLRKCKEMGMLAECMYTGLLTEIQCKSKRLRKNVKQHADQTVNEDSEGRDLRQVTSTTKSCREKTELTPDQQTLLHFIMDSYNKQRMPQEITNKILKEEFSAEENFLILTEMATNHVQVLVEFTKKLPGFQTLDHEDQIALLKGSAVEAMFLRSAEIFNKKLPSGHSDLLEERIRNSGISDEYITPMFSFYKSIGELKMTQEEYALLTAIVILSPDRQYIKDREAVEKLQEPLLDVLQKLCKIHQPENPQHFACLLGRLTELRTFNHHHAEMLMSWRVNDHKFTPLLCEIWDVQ
T1 sequence (P19793 1-462 partner): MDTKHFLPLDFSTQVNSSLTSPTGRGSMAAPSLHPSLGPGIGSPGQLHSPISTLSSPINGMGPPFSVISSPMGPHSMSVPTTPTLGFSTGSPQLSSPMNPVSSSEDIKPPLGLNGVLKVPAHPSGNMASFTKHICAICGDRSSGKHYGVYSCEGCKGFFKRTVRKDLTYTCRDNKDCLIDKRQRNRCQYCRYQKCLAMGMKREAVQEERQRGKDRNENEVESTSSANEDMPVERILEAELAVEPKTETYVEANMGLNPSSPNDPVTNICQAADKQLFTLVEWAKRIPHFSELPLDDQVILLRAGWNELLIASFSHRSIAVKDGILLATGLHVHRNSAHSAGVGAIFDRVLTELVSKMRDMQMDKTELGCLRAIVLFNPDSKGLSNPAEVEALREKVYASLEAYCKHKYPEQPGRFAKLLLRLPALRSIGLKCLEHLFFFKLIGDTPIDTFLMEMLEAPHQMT
Assay: In Vitro FXR Assay (TK), luciferase reporter in transfected CV-1 cells
Type: cell-based
Conditions: CV-1 cells transfected with hFXR, hRXR, TK-ECRE-luc; 18 hrs incubation; luminescence; compounds with a maximum efficacy of <25% of the Fexaramine control classified as '+'
Protocol: Example B-2: In Vitro FXR Assay (TK)
CV-1 cells were seeded at a density of 2,000,000 cells in a T175 flask with DMEM+10% charcoal double-stripped FBS and incubated at 37° C. in 5% CO2 for 18 h (O/N).
After 18 h of incubation, the medium in the T175 flask was changed with fresh DMEM+10% charcoal super-stripped serum. In a polypropylene tube, 2500 μL OptiMEM (Life Technologies, Cat #31985-062) was combined with expression plasmids for hFXR, hRXR, TK-ECRE-luc and pCMX-YFP. The tube was then briefly vortexed and incubated at room temperature for 5 minutes. Transfection reagent (X-tremeGENE HP from Roche, Cat #06 366 236 001) was added to the OptiMEM/plasmid mixture vortexed and incubated at room temperature for 20 minutes. Following incubation, the transfection reagent/DNA mixture complex was added to cells in the T175 flask and the cells were incubated at 37° C. in 5% CO2 for 18 h (O/N).
Compounds were serially diluted in DMSO and added to transfected CV-1 cells. The cells were then incubated for 18 hrs. The next day cells were lysed and examined for luminescence.

SMILES: COc1ccc(-c2cccc(N(Cc3ccc(-c4ccc(N(C)C)cc4)cc3)C(=O)C3CCCCC3)c2)s1 [Compound 31, N-((4′-(Dimethylamino)-[1,1′-biphenyl]-4-yl)methyl)-N-(3-(5-methoxythiophen-2-yl)phenyl)cyclohexanecarboxamide]
- EC50: ≤ 3 µM

SMILES: CCc1cncc(-c2cccc(N(Cc3ccc(-c4ccc(N(C)C)cc4)cc3)C(=O)C3CCCCC3)c2)c1 [Compound 33, N-((4′-(Dimethylamino)-[1,1′-biphenyl]-4-yl)methyl)-N-(3-(5-ethylpyridin-3-yl)phenyl)cyclohexanecarboxamide]
- EC50: 3 to 10 µM

SMILES: Cc1cncc(-c2cccc(N(Cc3ccc(-c4ccc(N(C)C)cc4)cc3)C(=O)C3CCCCC3)c2)c1 [Compound 24, N-((4′-(Dimethylamino)-[1,1′-biphenyl]-4-yl)methyl)-N-(3-(5-methylpyridin-3-yl)phenyl)cyclohexanecarboxamide]
- EC50: 3 to 10 µM

SMILES: COc1ncc(-c2cccc(N(Cc3ccc(-c4ccc(N(C)C)cc4)cc3)C(=O)C3CCCCC3)c2)s1 [Compound 29, N-((4′-(Dimethylamino)-[1,1′-biphenyl]-4-yl)methyl)-N-(3-(2-methoxythiazol-5-yl)phenyl)cyclohexanecarboxamide]
- EC50: ≤ 3 µM

SMILES: COc1cc(-c2cccc(N(Cc3ccc(-c4ccc(N(C)C)cc4)cc3)C(=O)C3CCCCC3)c2)ncn1 [Compound 35, N-((4′-(Dimethylamino)-[1,1′-biphenyl]-4-yl)methyl)-N-(3-(6-methoxypyrimidin-4-yl)phenyl)cyclohexanecarboxamide]
- EC50: ≤ 3 µM

SMILES: COc1cc(-c2cccc(N(Cc3ccc(-c4ccc(N(C)C)cc4)cc3)C(=O)C3CCCCC3)c2)sn1 [Compound 43, N-((4′-(Dimethylamino)-[1,1′-biphenyl]-4-yl)methyl)-N-(3-(3-methoxyisothiazol-5-yl)phenyl)cyclohexanecarboxamide]
- EC50: ≤ 3 µM

SMILES: COc1ccc([C@H]2CC[C@H](CN(c3cccc(N4CCC(OC)CC4)c3)C(=O)[C@H]3CC[C@H](O)CC3)CC2)cc1C [Compound 49, trans-4-Hydroxy-N-((trans-4-(4-methoxy-3-methylphenyl)cyclohexyl)methyl)-N-(3-(4-methoxypiperidin-1-yl)phenyl)cyclohexanecarboxamide]
- EC50: ≤ 3 µM

SMILES: COc1ccc(-c2cccc(N(Cc3ccc(-c4ccc(N(C)C)cc4)cc3)C(=O)C3CCCCC3)c2)cc1 [Compound 3.1, N-((4′-(Dimethylamino)-[1,1′-biphenyl]-4-yl)methyl)-N-(4′-methoxy-[1,1′-biphenyl]-3-yl)cyclohexanecarboxamide]
- EC50: ≤ 3 µM

SMILES: COCC1CCN(c2cccc(N(C[C@H]3CC[C@H](c4ccc(OC)c(C)c4)CC3)C(=O)[C@H]3CC[C@H](O)CC3)c2)C1 (stereo partly drawn) [Compound 48, trans-4-Hydroxy-N-((trans-4-(4-methoxy-3-methylphenyl)cyclohexyl)methyl)-N-(3-(3-(methoxymethyl)pyrrolidin-1-yl)phenyl)cyclohexanecarboxamide]
- EC50: 3 to 10 µM

SMILES: COc1ccc([C@H]2CC[C@H](CN(c3cccc(N4CC(OC)C4)c3)C(=O)[C@H]3CC[C@H](O)CC3)CC2)cc1C [Compound 45, trans-4-Hydroxy-N-((trans-4-(4-methoxy-3-methylphenyl)cyclohexyl)methyl)-N-(3-(3-methoxyazetidin-1-yl)phenyl)cyclohexanecarboxamide]
- EC50: ≤ 3 µM

SMILES: CN(C)c1ccc(-c2ccc(CN(C(=O)C3CCCCC3)c3cccc(-c4cc(=O)n(C)s4)c3)cc2)cc1 [Compound 44, N-((4′-(Dimethylamino)-[1,1′-biphenyl]-4-yl)methyl)-N-(3-(2-methyl-3-oxo-2,3-dihydroisothiazol-5-yl)phenyl)cyclohexanecarboxamide]
- EC50: ≤ 3 µM

SMILES: CN(C)c1ccc(-c2ccc(CN(C(=O)C3CCCCC3)c3cccc(/C=C/c4ccccn4)c3)cc2)cc1 [Compound 27, (E)-N-((4′-(Dimethylamino)-[1,1′-biphenyl]-4-yl)methyl)-N-(3-(2-(pyridin-2-yl)vinyl)phenyl)cyclohexanecarboxamide]
- EC50: ≤ 3 µM

SMILES: COc1ccc([C@H]2CC[C@H](CN(c3cccc(N4CCC(OC)C4)c3)C(=O)[C@H]3CC[C@H](O)CC3)CC2)cc1C (stereo partly drawn) [Compound 47, trans-4-Hydroxy-N-((trans-4-(4-methoxy-3-methylphenyl)cyclohexyl)methyl)-N-(3-(3-methoxypyrrolidin-1-yl)phenyl)cyclohexanecarboxamide]
- EC50: 3 to 10 µM

SMILES: CN(C)c1ccc(-c2ccc(CN(C(=O)C3CCCCC3)c3cccc(CCc4ncco4)c3)cc2)cc1 [Compound 22, N-((4′-(Dimethylamino)-[1,1′-biphenyl]-4-yl)methyl)-N-(3-(2-(oxazol-2-yl)ethyl)phenyl)cyclohexanecarboxamide]
- EC50: ≤ 3 µM

SMILES: CN(C)c1ccc(-c2ccc(CN(C(=O)C3CCCCC3)c3cccc(/C=C/c4ccncc4)c3)cc2)cc1 [Compound 28, (E)-N-((4′-(Dimethylamino)-[1,1′-biphenyl]-4-yl)methyl)-N-(3-(2-(pyridin-4-yl)vinyl)phenyl)cyclohexanecarboxamide]
- EC50: 3 to 10 µM

SMILES: CN(C)c1ccc(-c2ccc(CN(C(=O)C3CCCCC3)c3cccc(-c4cccnc4)c3)cc2)cc1 [Compound 23, N-((4′-(Dimethylamino)-[1,1′-biphenyl]-4-yl)methyl)-N-(3-(pyridin-3-yl)phenyl)cyclohexanecarboxamide]
- EC50: 3 to 10 µM

SMILES: COCC1CN(c2cccc(N(C[C@H]3CC[C@H](c4ccc(OC)c(C)c4)CC3)C(=O)[C@H]3CC[C@H](O)CC3)c2)C1 [Compound 46, trans-4-Hydroxy-N-((trans-4-(4-methoxy-3-methylphenyl)cyclohexyl)methyl)-N-(3-(3-(methoxymethyl)azetidin-1-yl)phenyl)cyclohexanecarboxamide]
- EC50: ≤ 3 µM
